According to patent US20220105051A1, “COMPOUNDS FOR INCREASING MHC-I EXPRESSION AND MODULATING HISTONE DEACETYLASE ACTIVITY” (Cava Healthcare Inc., priority 2019, published 2022):
“Also recorded” adds a separate entry of the source.

Columns and labels:
A9 cell line = experiment: Cytotoxicity / live cell frequency in A9 cells (flow cytometry, 7AAD); type: cell-based, murine; settings: for cytotoxicity: 48 hours after treatment
Description: A9 and TC-1 cell lines were trypsinized (0.05%, Gibco), washed twice with PBS (Gibco), and stained with allophycocyanin (APC) conjugated anti-mouse H-2K^b antibody (1:200, Biolegend) suspended in 150 μL of FACS buffer (PBS+2% FBS) for 20 minutes at 4° C. Cells were washed twice with PBS and re-suspended in 200 μL FACs buffer containing 1 μL of 7-aminoactinomycin (7AAD) viability stain (Biolegend). Flow cytometry was performed on the LSRII (BDBiosciences) and analysis was done using FlowJo (Flow cytometry Analysis Software).
The marine extract library was provided by Dr. Raymond J. Andersen (UBC). The marine invertebrate specimens were collected by SCUBA diving at a 40 metre depth from regions of high marine biodiversity in Papua New Guinea, Indonesia, Thailand, Sri Lanka, Dominica, Brazil, British Columbia, South Africa, and Norway 35. Previously curcuphenol was identified as the active component in one of the marine extracts showing induction of the APM, and since then two new generations of curcuphenol analogues were synthesized in the lab of Dr. Raymond Anderson. To evaluate the ability of these compounds to induce MHC-I surface expression, A9 cells were plated in 6 well plates at 10^5 cells/well and incubated for 24 hours at 37° C. in a 5% CO2 humidified atmosphere. After 24 hours the medium was removed and replaced with medium containing varying concentration of synthesized compounds (6.7 μg/mL, 20 μg/mL, 60 μg/mL). […] Following treatment, cells were incubated for 48 hours at 37° C. with 5% CO2 and humidified atmosphere. After incubation cells were subjected to flow cytometry.

[1] = tested on: A9 metastatic tumour cells; experiment: In vivo tumour trial; design: species or system C57BL/6 mice; settings: daily i.p. for 12 days; for anti-tumour effect compared among the treatments / tumour volume / tumour growth compared to vehicle control: A9 tumours; for anti-tumour effect compared among the treatments: 5.2 mg/kg; for tumour volume / tumour growth compared to vehicle control / body weight: P02-113 and P03-97-1 5.2 mg/kg, TSA 0.5 mg/kg
Description: The metastatic cell line, A9, was grown in the DMEM, as previously described without, the addition of antibiotics (penicillin and streptomycin, P/S). Once cells reached 75-80% confluence, they were trypsinized (0.05%, Gibco) and washed with HBSS (Hanks balanced salt solution). The cells were counted using the Bio-RAD TC20 automated cell counter and suspended to a concentration of […] in HBSS. Thirty-two synergistic female C57BL/6 mice, between the ages 6-8 weeks, were subcutaneously injected in the right flank with 50 μL containing 5×10^4 A9 metastatic tumour cells. Seven days following tumour inoculation i.p. treatment began daily for 12 days. Four treatment groups were studied, with eight animals per group. […] Body weights were measured three times a week and once tumours developed they were measured with calipers and tumour volume was calculated. Twelve days after starting treatment, mice were euthanized and tumours were collected and weighed. The tumours were then processed for flow cytometry analysis. Tumours were cut into small pieces and incubated RPMI (Gibco; with P/S 0.5%, Sodium pyruvate 1%, and L-glutamine 1%) and 3 mg/mL collagenase A (Roche) for one hour at 37° C. with shaking. Dissociated tumour cells were passed through a 100 μm filter and spun down at 15,000×RCF for 3 minutes. The pellet was washed once in FACs buffer (2% FBS in PBS) and spun down. The pellet was next suspended in red blood cell (RBC) lysis buffer and kept at room temperature for 5 minutes before being neutralized by the addition of 5 ml of PBS and spun down. If pellets were still found to contain RBCs this step was repeated. Once all RBCs were removed cells were suspended in FACs buffer to a concentration of 10^7 cells/mL. A total volume of 200 ul of cells from each tumour were added to a 96 well plate (Falcon) and incubated with Fc Blocker (Biolegend, 1:400) for twenty minutes at 4° C. The 96 well plate was spun down at 1,200 rmp for three minutes and supernatant was removed. The cells were then suspended in 150 ul of FACs buffer containing anti-CD8a (PE-Cy7, 1:200, eBioscience) and CD4 (APC, 1:200, Biolegend) antibodies and incubated at 4° Celsius for 20 minutes. The cells were washed twice and spun down using FACs buffer before being to flow cytometry tubes in a final volume of 200 ul of FACs buffer containing 7AAD (Biolegend 1:200). Flow cytometry was performed on LSRII (BDBiosciences) and analysis was done using FlowJo (Flow cytometry Analysis Software).
Treatment of tumour-bearing mice with identified compounds. 5×10^4 A9 cells suspended in HBSS were subcutaneously (s.c.) transplanted into the right flank of 32 eight-week-old female C57BI/6 mice, as previously described 75. […] Body weight and tumours (once established) were measured every 2-4 days (more often as tumour size increased). Tumours were measured using calipers and volume was calculated as following: tumour volume=length×width^2. The tumour growth rate was assessed using methods previously described^28.

| Compound | cytotoxicity (A9 cell line) | live cell frequency (A9 cell line; 48 hours, 0.128 μmol) | anti-tumour effect compared among the treatments [1] | tumour volume / tumour growth compared to vehicle control [1] | tumour volume / tumour growth compared to vehicle control ([1]; listed as PC-02-113) | body weight [1] |
| --- | --- | --- | --- | --- | --- | --- |
| CC(C)=CCC[C@H](C)c1ccc(C)cc1O [Curcuphenol, curcuphenol] | low cellular toxicity | drops substantially | – | – | – | – |
| CC(C)=CCCCc1ccc(C)cc1O [P02-113] | low cytotoxicity; also recorded: lowest cytotoxicity | – | not found to be as significant as P03-97-1 or TSA; also recorded: slightly larger | reduced; also recorded: statistically significant reduction of tumour volume | suppresses growth of tumors | remained stable; also recorded: no significant changes |
| COc1ccc(C(C)CCC=C(C)C)c(O)c1 (centres unmarked) [P03-97-1] | low cytotoxicity; also recorded: lowest cytotoxicity | – | significant anti-tumour effect; also recorded: greater reduction in tumour burden | reduced; also recorded: statistically significant reduction of tumour volume; also recorded: suppresses growth of tumors | – | remained stable; also recorded: no significant changes |
